Tested on: Xenopus melanophores
Assay: Melatonin-antagonist activity with respect to pigment aggregation
Assay type: cell-based, Xenopus laevis
Details: compound at 10^-7 M, melatonin 10^-8 M
Description: Melatonin is known to participate in regulation of the skin color of amphibians such as Xenopus (Xenopus laevis). It causes condensation of the […] granules in the melanophores of the dermis (Sugden D. European Journal of Pharmacology, vol. 213, pp: 405-408 (1992)).
The compounds of the invention were tested for their capacity to inhibit the effect of melatonin on Xenopus melanophores.
(According to the method described in Sugden D. Br. J. Pharmacol. vol. 104, pp 922-927, (1991)).
The neural crest of Xenopus embryos is dissected and the cells are isolated. The melanophores which appear after 2-3 days of culture are rapidly visible among the other cells emanating from the neural crest. The melanophores are cultured in Leibovitz L-15 medium (Gibco) and diluted (1/1) with deionized water containing 10% of fetal calf serum, 200 IU/cm^3 of penicillin, 200 μg/cm^3 of streptomycin and 2.5 μg/cm^3 of amphotericin B.
The experiments on the melanophores are carried out between days 7 and 12 of the culture.
The response of the isolated melanophores to melatonin is quantified by measuring the pigmented area using a computer-assisted image analyzer. The test compounds are added to the culture medium 10 to 15 min before the measurement.

## O=C(NCCc1cccc2ccccc12)C1CCC1 [Example 1, N-[2-(1-naphthyl)ethyl]cyclobutanecarboxamide]
  antagonism of the action of melatonin on pigment aggregation: significantly antagonizes the action of melatonin

— US5420158A, “Naphthylalkylamines” (Adir et Compagnie, priority 1992, dated 1995)
